Entries after “also recorded” stand apart in the source; their conditions may differ. Like-named read-outs stand apart in the source and are kept apart here.
Assays:
[1] = tested on: Meth A sarcoma; assay: Meth A sarcoma implanted in the skin of mice, glucan treatment; assay type: in vivo, hybrid CB6 F1 (Balb/c×C 57131/6) mice
Procedure: Meth A sarcoma was inoculated in the skin of hybrid CB6 F1 (Balb/c×C 57131/6) and grew progressive in immunized animals. […] When 5 mg of pure water-soluble aminated ß(1,3) glucan was injected intravenously or intraperitoneally on day 7, there was an almost immediate visible effect.

[2] = tested on: lethal bacterial peritonitis; conditions: mice, cited from earlier work
[3] = tested on: sarcoma SA-1; assay: sarcoma SA-1 in syngeneic mice, glucan treatment; assay type: in vivo, A strain mice
Excerpt: To decide whether the ß(1,3) glucan regression was peculiar to the Meth A tumor, we also performed experiments with sarcoma SA-1, syngeneic in A strain mice.

[4] = tested on: macrophages; conditions: more than forty polysaccharides tested; cited from earlier work
[5] = tested on: lethal virus infection; assay: protection against lethal virus infection in mice; assay type: in vivo; conditions: not published
Excerpt: Following advanced experiment on carbohydrate chemistry at the Institute of Wood Chemistry at the University of Uppsala, the inventor was able to provide a water soluble, stimulatory aminated ß(1,3) glucan by treatment of natural, insoluble ß(1,3) with chloroacetaldehyde dimethyl acetal followed by reductive amination (3). The aminated ß(1,3) glucan derivative activated macrophages and thereby protected against otherwise lethal bacterial peritonitis in mice (4), as well as lethal virus infection in mice (not published).

Substance: aminated ß(1,3) glucan
- tumor appearance 1 hour after injection ([1]; 5 mg intravenously on day 7, saline tumors reddish and bulging): collapsed and whitish-grey
- histological examination of tumor site ([1]; glucan-treated animals): acute inflammation around the tumor
- effect on tumor in non-immunized animals or treated on day 1, 3 ([1]; non-immunized animals, or treatment on day 1, 3): little or no effect
- condition of the animals after 200 days ([1]; one injection on day 7): unaffected and vital
- tumor at day 18-21 after inoculation ([1]; one injection on day 7 (5 mg i.v. or i.p.)): No visible tumor; also recorded: completely replaced by scar tissue
- effect on tumor in TxB animals ([1]; thymectomized, x-ray irradiated and bonemarrow transplanted, day 8-14): no effect
- protection against otherwise lethal bacterial peritonitis [2]: protected
- protection against otherwise lethal bacterial peritonitis ([2]; listed as ß(1,3) glucan): sufficient to prevent a lethal outcome
- cases in which tumors reappeared and resumed growth ([3]; after 18-21 days): about one third
- tumor regression compared with Meth A results ([3]; sarcoma SA-1, A strain mice): essentially identical
- ability to stimulate macrophages in vitro [4]: stimulatory
- protection against lethal virus infection [5]: protected

Source: US20240285700A1, “COMBINATION OF AN ONCOLYTIC VIRUS, AN ANTI-PD-1 INHIBITOR AND AN ACTIVATOR OF THE INNATE IMMUNE SYSTEM FOR USE IN THE TREATMENT OF PROSTATE CANCER” (priority 2021, published 2024)
